Measurements as given in patent publication US8632846B2, “Apparatus and methods for loading a drug eluting medical device” (Medtronic Vascular, Inc., priority 2010, dated 2014).

Experiment: solubility of sirolimus in solvents / dispersion media
Type: physicochemical
Protocol: Solution 524 is a homogeneous mixture in which therapeutic substance 112 dissolves within a solvent or a solvent mixture. In one embodiment, solution 524 includes a high-capacity solvent 528 which is an organic solvent that has a high capacity to dissolve therapeutic substance 112. High capacity as utilized herein is defined as an ability to dissolve therapeutic substance 112 at concentrations greater than 500 mg of substance per milliliter of solvent. Examples of high capacity drug dissolving solvents for sirolimus and similar substances include but are not limited to tetrahydrofuran (THF), di-chloromethane (DCM), chloroform, and di-methyl-sulfoxide (DMSO). In addition to the high-capacity solvent, solution 524 may include an excipient 526 in order to assist in drug elution. In one embodiment, excipient 526 may be a surfactant such as but not limited to sorbitan fatty acid esters such as sorbitan monooleate and sorbitan monolaurate, polysorbates such as polysorbate 20, polysorbate 60, and polysorbate 80, cyclodextrins such as 2-hydroxypropyl-beta-cyclodextrin and 2,6-di-O-methyl-beta-cyclodextrin, sodium dodecyl sulfate, octyl glucoside, and low molecular weight poly(ethylene glycol)s. In another embodiment, excipient 526 may be a hydrophilic agent such as but not limited to salts such as sodium chloride and other materials such as urea, citric acid, and ascorbic acid. […]

solubility in hexane (hexane): insoluble
solubility in water (water): insoluble
SMILES: CO[C@H]1C[C@@H]2CC[C@@H](C)[C@@](O)(O2)C(=O)C(=O)N2CCCC[C@H]2C(=O)O[C@H]([C@H](C)C[C@@H]2CC[C@@H](O)[C@H](OC)C2)CC(=O)[C@H](C)/C=C(\C)[C@@H](O)[C@@H](OC)C(=O)[C@H](C)C[C@H](C)/C=C/C=C/C=C/1C [sirolimus]
